According to PubChem BioAssay (NCI):
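Five concentrations, 48 hours, 96-well plates. At the TGI there is no net growth.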

Experiments:
Assay in all cases: NCI anticancer screen, dose series, 48 h
[1] = system: SW-620 colon
[2] = system: SNB-75 CNS
[3] = system: LOX IMVI melanoma
[4] = system: UACC-62 melanoma
[5] = system: NCI-H522 lung
[6] = system: ACHN renal
[7] = system: SR leukemia
[8] = system: UO-31 renal
[9] = system: HS 578T breast
[10] = system: SNB-19 CNS
[11] = system: U251 CNS
[12] = system: HCC-2998 colon
[13] = system: NCI-H23 lung

Compound | TGI [1] [µM] | TGI [2] [µM] | TGI [3] [µM] | TGI [4] [µM] | TGI [5] [µM] | TGI [6] [µM] | TGI [7] [µM] | TGI [8] [µM] | TGI [9] [µM] | TGI [10] [µM] | TGI [11] [µM] | TGI [12] [µM] | TGI [13] [µM]
Cc1nc2c(sc3nc4ccccc4n32)c(=O)[nH]1 | > 100 | > 100 | > 100 | > 100 | > 100 | > 100 | > 100 | > 100 | > 100 | > 100 | > 100 | > 100 | > 100
O[C@@H]1C[C@@H]2N[C@@](O)(C[C@@H]2O)[C@H]1O | > 100 | > 100 | > 100 | > 100 | > 100 | > 100 | > 100 | > 100 | > 100 | > 100 | > 100 | > 100 | > 100
Cc1nnc2n1-c1ccccc1C(=S)N1CSCC21 (stereo unspecified) | > 100 | > 100 | > 100 | > 100 | > 100 | > 100 | > 100 | > 100 | > 100 | > 100 | > 100 | > 100 | 
Cc1cccc2c1NC(=S)[C@@H]1CCCN1C2=O | > 100 | > 100 | > 100 | > 100 | > 100 | > 100 | > 100 | > 100 | > 100 | > 100 | > 100 | > 100 | > 100
Cc1ccc(Nc2cc(=O)[nH]c(=S)[nH]2)cc1 | > 100 | > 100 | > 100 | > 100 | > 100 | > 100 | > 100 | > 100 | > 100 | > 100 | > 100 | > 100 | > 100
O=[N+]([O-])c1ccc2nc(/C=C(\O)c3ccc(F)cc3)c(/C=C(\O)c3ccc(F)cc3)nc2c1 | > 100 | 37.5 | > 100 | > 100 | > 100 | 36.6 | 40.9 | > 100 | > 100 | > 100 | 70.5 | > 100 | 77.7
O=S1C2=C(Cc3ccccc3)C(Cc3ccccc3)=C1CCc1cccc(c1)CC2 | 77.9 | 27.8 | 28.1 | 24.7 | 27.6 | 30.8 | 90.2 | 25.8 | 48.8 | 28.1 | 26.8 | 27.5 | 28.2
COCCOCCOC1=C(Cl)C(=O)c2c(O)ccc(O)c2C1=O | 0.562 | 31.5 | 4.59 | 7.85 | 2.99 | 3.5 | 3.04 | 4.83 | 7.9 | 27.1 | 17.4 | 34 | 6.03
Cc1c(NC(=S)Nc2ccc(Cl)cc2)c(=O)n(-c2ccccc2)n1C | > 100 | > 100 | > 100 | > 100 | > 100 | > 100 | > 100 | > 100 | > 100 | > 100 | > 100 | > 100 | > 100
Brc1ccc2[nH]cc(-c3nc(-c4c[nH]c5ccccc45)cs3)c2c1 | 13.3 | 25.1 | 4.68 | 6.95 | 3.73 | 8.75 | > 100 | 13.9 | > 47.9 | 12.2 | 8.38 | 4.17 | 8.84
CCC(=O)O[C@H]1CC[C@H]2[C@@H]3CCC4=C/C(=N/NC(=O)c5cccc6c(=O)c7ccccc7[nH]c56)CC[C@]4(C)[C@H]3CC[C@]12C | > 25 | > 25 | > 25 | > 25 | > 25 | > 25 | > 25 | > 25 | > 25 | > 25 | > 25 | > 25 | > 25
N#Cc1ccc(OCc2nc3cc(C(F)(F)F)ccc3nc2-c2ccccc2)cc1 | > 100 | > 100 | > 100 | > 100 | > 100 | > 100 | > 100 | > 100 | > 100 | > 100 | > 100 | > 100 | > 100
COc1cccc(NC(=O)CC(=O)N2N=C(C)C(N=Nc3ccc(S(=O)(=O)c4ccc(N=NC5C(=O)N(C(=O)CC(=O)Nc6cccc(OC)c6)N=C5C)cc4)cc3)C2=O)c1 (stereo unspecified) | > 100 | > 100 | > 100 | > 100 | > 100 | > 100 | > 100 | > 100 | > 100 | > 100 | > 100 | > 100 | > 100
O=C(CC(C(=O)c1ccoc1)c1ccco1)c1ccco1 (stereo unspecified) | > 100 | > 100 | > 100 | > 100 | > 100 | > 100 | > 100 | > 100 | > 100 |  | > 100 | > 100 | > 100
COc1ccc(CCNC(=O)Cc2cc(OC)c(OC)cc2CO)cc1OC | > 100 | > 100 | > 100 | > 100 | > 100 | > 100 | > 100 | > 100 | > 100 |  | > 100 | > 100 | > 100
C#C[C@]1(O)CC[C@H]2[C@@H]3CCc4cc(OC(=O)c5cccc6cc7ccccc7nc56)ccc4[C@H]3CC[C@@]21C | > 100 | > 100 | 66 | 80.4 | 50.5 | > 100 | > 100 |  | > 100 | > 100 | > 100 | > 100 | > 100
COc1ccccc1N1CCN(Cn2c(=O)oc3cccnc32)CC1 | > 100 | > 100 | > 100 |  | > 100 | > 100 | > 100 | > 100 | > 100 | > 100 | > 100 | > 100 | > 100
